The values that follow are results of earlier work, collected in PMC4984525 (Cancer, 2011).

The subject of this data set is A2780. Particulars: A2780 subcutaneous xenograft, mouse; cited from earlier work.

On to `CON(C)C(=O)N1N=C(c2cc(F)ccc2F)S[C@@]1(CCCN)c1ccccc1` [ARRY-520], for which the anti-cancer efficacy result is “demonstrated anti-cancer efficacy”.
